According to article PMC4995014, “Identification of ABC Transporter Interaction of a Novel Cyanoquinoline Radiotracer and Implications for Tumour Imaging by Positron Emission Tomography” (PLoS ONE, 2016):

Key:
Type in all cases: cell-based
[1] = molecular target: T1, EGFR L858R/T790M (H1975 cells) (Homo sapiens, UniProt P00533, L858R/T790M); experiment: Inhibition of EGFR autophosphorylation (p-EGFR Y1068, western blot) in H1975 cells; conditions: 3 h incubation, EGF stimulated
T1 construct: host or cells: H1975
T1 sequence (P00533 25-1210 T790M/L858R): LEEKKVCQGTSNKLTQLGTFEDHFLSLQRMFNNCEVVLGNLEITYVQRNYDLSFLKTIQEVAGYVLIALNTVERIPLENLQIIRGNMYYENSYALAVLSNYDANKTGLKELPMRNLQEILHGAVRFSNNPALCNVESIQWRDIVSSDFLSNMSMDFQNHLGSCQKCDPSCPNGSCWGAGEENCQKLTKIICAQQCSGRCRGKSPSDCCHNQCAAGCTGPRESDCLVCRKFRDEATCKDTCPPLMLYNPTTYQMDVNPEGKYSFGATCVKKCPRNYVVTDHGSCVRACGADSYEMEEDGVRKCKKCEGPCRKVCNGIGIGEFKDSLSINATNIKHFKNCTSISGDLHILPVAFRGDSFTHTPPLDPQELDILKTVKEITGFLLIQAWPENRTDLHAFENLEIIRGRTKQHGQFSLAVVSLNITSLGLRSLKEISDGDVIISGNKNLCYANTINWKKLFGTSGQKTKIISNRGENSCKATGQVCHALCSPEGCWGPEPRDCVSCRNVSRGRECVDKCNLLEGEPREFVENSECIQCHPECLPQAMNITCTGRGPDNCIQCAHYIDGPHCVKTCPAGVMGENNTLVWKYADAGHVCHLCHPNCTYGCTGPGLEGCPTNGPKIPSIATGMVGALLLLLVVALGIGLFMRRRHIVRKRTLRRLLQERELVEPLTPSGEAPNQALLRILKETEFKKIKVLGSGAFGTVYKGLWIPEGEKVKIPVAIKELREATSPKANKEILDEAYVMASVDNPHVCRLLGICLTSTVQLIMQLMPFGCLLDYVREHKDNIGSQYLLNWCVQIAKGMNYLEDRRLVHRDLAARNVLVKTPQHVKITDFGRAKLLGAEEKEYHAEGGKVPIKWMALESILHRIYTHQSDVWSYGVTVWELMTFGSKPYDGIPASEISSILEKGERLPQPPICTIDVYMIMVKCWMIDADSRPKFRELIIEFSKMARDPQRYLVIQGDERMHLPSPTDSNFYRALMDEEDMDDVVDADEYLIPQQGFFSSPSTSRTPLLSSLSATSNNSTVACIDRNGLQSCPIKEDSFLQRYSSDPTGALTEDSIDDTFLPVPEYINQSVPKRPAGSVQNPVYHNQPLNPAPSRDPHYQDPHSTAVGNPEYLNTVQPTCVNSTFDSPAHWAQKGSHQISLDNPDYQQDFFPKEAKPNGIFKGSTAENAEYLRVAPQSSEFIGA
Procedure: (§1) Affinity of the cyanoquinolines for EGFR was established by measuring their inhibition of EGFR autophosphorylation via western blot. Cells were seeded in 6 well plates and following 24 h of growth, were subject to overnight serum starvation. The cells were then treated with increasing concentrations of cyanoquinolines prepared in serum free growth media from a DMSO stock (final DMSO concentration < 1%) for 3 h at 37°C, and stimulated for receptor autophosphorylation by addition of 100 ng/mL of EGF during the last 15 minutes of drug incubation. After 3 h the cells were placed on ice, media removed and then the cells were washed two times with ice cold phosphate buffered saline (PBS). Lysates were analysed by western blot to measure changes to p-EGFR Y1068.
(§2) Cells were collected into a microcentrifuge tube and sonicated for 30 seconds on ice. Cellular protein levels were assessed using a bicinchoninic acid (BCA) protein assay kit according to the manufacturer’s instructions (Thermo scientific). […] Samples were transferred to polyvinylidene difluoride (PVDF) membrane using Trans-Blot Turbo system BIO-RAD (Hercules, California, USA). […] The membranes were then incubated overnight with primary antibody prepared in 1% milk or 1% BSA in TBST. […] Membranes were washed a further three times for 10 minutes with TBST. […]

3T3 cells = experiment: SRB cell viability assay in 3T3 cells; conditions: Mus musculus, NIH3T3, 72 h
Procedure: (§3) Cell viability by the sulforhodamine B (SRB) assay was used to assess cell growth and cytotoxicity of test compounds [29]. Cells were seeded at densities of 3,500 to 5,000 cells per well in 96 well plates overnight and pre-treated for 1 h with ABC transporter modulators: 10 μM fumitremorgin C (FTC; in MCF7MX and MCF7 cells), or 0.3 μM of zosuquidar (in 3T3 and 3T3-MDR1). Cells were then treated with test compounds for 72 h, at 37°C. After drug treatment, cells were fixed by addition of 50% trichloroacetic acid (TCA), and the plates washed and dried to allow staining with 0.4% solution of sulforhodamine B (Sigma) in 1% acetic acid for 30 minutes. Excess dye was removed upon washing with 1% acetic acid. Plates were dried and bound protein was solubilised upon addition of 150 μL of 10 mM Tris base buffer. Absorbance was measured at 540 nm using Thermo Multiskan-Ex plate reader. Cell viability versus compound concentration curves were plotted as a percentage of control cells. The concentration of drug that gave 50% inhibition in cell growth (GI50) was extrapolated from these curves using the sigmoid curve fit with variable slope in Prism (GraphPad Prism version 5.01, GraphPad Software, San Diego California USA). Three to six replicate wells were used for each drug concentration and experiments were carried out on three separate occasions for each compound.

ABCB1 (MDR1) = experiment: SRB cell viability assay in 3T3-MDR1 cells (ABCB1 expressing); conditions: mouse, 3T3-MDR1 cells (ABCB1 expressing), 72 h, SRB
Procedure: as §3

3T3-MDR1 cells = experiment: as above; conditions: GI50 3T3-MDR1 over GI50 3T3, without zosuquidar
Procedure: as §3

EGFR L858R (H3255 cells) = molecular target: T2, EGFR L858R (H3255 cells) (Homo sapiens, UniProt P00533, L858R); experiment: Inhibition of EGFR autophosphorylation (p-EGFR Y1068, western blot) in H3255 cells; conditions: 3 h incubation, EGF stimulated
T2 construct: host or cells: H3255
T2 sequence (P00533 25-1210 L858R): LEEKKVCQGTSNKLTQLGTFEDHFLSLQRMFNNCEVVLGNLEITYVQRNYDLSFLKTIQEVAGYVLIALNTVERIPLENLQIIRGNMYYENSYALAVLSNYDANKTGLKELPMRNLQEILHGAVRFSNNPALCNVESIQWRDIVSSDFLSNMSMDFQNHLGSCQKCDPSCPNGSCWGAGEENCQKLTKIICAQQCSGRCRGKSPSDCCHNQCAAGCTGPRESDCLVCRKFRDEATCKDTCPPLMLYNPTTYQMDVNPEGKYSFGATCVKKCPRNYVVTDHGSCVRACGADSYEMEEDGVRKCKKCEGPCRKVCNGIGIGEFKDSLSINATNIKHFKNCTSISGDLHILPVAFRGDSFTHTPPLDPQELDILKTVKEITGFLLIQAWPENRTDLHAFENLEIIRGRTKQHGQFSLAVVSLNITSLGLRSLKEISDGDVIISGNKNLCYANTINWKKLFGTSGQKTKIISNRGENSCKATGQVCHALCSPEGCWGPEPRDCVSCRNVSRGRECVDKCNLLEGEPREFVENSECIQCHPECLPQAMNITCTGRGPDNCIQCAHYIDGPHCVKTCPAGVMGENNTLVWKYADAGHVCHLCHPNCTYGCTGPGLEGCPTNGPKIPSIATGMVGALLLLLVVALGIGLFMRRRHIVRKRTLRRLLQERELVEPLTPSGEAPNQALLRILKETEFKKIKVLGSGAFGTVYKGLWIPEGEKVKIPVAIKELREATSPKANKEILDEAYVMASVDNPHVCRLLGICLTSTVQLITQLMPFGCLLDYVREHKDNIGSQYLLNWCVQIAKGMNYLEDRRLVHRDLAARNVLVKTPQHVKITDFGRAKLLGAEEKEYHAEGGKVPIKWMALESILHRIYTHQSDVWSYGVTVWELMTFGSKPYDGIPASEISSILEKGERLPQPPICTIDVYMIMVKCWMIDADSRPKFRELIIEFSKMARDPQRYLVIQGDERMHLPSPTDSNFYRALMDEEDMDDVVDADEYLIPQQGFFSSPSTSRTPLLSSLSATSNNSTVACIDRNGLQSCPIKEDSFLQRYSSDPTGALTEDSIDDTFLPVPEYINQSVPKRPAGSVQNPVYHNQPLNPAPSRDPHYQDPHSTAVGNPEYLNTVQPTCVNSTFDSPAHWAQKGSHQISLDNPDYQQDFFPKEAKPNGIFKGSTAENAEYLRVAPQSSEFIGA
Procedure: as §1, §2

[2] = molecular target: T3, EGFR Del E746-A750 (PC9 cells) (Homo sapiens, UniProt P00533, DEL746-750); experiment: Inhibition of EGFR autophosphorylation (p-EGFR Y1068, western blot) in PC9 cells; conditions: 3 h incubation, densitometry of western blots
T3 construct: endogenous in cells; host or cells: PC9 (Dr Olivier Pardo, Imperial College London)
Procedure: as §1, §2

[3] = molecular target: T4, EGFR Del E746-A750 (H1650 cells) (Homo sapiens, UniProt P00533, DEL746-750); experiment: Inhibition of EGFR autophosphorylation (p-EGFR Y1068, western blot) in H1650 cells; conditions: 3 h incubation, EGF stimulated
T4 construct: endogenous in cells; host or cells: H1650 (ATCC)
T4 sequence (P00533 with tags, fused parts or gaps DEL746-750): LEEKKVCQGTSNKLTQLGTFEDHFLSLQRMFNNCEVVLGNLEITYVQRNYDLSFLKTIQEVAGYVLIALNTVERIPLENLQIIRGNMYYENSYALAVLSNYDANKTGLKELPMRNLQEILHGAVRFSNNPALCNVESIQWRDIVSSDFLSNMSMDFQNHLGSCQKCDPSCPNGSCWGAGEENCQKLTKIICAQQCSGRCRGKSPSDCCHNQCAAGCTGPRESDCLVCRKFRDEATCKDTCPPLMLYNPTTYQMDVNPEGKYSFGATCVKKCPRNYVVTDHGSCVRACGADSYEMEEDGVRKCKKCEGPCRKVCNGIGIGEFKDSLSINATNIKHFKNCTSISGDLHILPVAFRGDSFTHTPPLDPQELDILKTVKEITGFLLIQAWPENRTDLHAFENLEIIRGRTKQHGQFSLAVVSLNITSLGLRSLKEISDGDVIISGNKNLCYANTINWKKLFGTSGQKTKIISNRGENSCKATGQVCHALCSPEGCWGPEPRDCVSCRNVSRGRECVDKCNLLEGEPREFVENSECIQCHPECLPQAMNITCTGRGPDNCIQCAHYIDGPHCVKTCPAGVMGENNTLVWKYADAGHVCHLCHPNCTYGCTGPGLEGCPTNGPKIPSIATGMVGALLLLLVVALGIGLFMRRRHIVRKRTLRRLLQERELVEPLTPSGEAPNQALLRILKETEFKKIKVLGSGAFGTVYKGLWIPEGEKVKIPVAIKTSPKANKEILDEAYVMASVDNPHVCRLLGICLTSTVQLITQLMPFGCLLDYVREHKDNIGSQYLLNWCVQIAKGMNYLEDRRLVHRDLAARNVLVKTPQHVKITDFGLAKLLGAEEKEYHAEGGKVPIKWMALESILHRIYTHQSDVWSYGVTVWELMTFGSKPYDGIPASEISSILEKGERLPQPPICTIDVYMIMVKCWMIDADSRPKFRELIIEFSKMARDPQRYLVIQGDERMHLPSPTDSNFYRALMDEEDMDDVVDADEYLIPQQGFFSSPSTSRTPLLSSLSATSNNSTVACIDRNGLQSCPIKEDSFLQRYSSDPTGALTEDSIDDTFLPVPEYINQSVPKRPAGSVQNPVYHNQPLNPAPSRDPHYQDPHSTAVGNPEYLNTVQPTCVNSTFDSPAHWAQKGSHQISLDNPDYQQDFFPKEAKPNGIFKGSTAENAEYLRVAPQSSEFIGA
Procedure: as §1
Cell lysates were prepared by addition of radioimmunoprecipitation assay (RIPA) buffer (50mM Tris-HCl pH 7.2, 150mM NaCl, 1% NP40, 1% sodium deoxycholate, 0.1% sodium dodecyl sulfate) supplemented with 1 x protease and phosphatase inhibitor cocktail (1mM 4-(2-Aminoethyl)benzenesulfonylfluoride hydrochloride, 800 nM aprotinin, 50 μM bestatin, 15 μM E-64, 5μM EDTA, 20 μM leupeptin, 10 μM pepstatin A; Thermo scientific, Waltham, Massachusetts, USA). […] Cellular protein levels were assessed using a bicinchoninic acid (BCA) protein assay kit according to the manufacturer’s instructions (Thermo scientific). […]

[4] = molecular target: T5, EGFR Del E746-A750/T790M (PC9ER cells) (Homo sapiens, UniProt P00533, DEL746-750/T790M); experiment: Inhibition of EGFR autophosphorylation (p-EGFR Y1068, western blot) in PC9ER cells
T5 construct: endogenous in cells; host or cells: PC9ER (Dr Olivier Pardo, Imperial College London)
T5 sequence (P00533 with tags, fused parts or gaps DEL746-750/T790M): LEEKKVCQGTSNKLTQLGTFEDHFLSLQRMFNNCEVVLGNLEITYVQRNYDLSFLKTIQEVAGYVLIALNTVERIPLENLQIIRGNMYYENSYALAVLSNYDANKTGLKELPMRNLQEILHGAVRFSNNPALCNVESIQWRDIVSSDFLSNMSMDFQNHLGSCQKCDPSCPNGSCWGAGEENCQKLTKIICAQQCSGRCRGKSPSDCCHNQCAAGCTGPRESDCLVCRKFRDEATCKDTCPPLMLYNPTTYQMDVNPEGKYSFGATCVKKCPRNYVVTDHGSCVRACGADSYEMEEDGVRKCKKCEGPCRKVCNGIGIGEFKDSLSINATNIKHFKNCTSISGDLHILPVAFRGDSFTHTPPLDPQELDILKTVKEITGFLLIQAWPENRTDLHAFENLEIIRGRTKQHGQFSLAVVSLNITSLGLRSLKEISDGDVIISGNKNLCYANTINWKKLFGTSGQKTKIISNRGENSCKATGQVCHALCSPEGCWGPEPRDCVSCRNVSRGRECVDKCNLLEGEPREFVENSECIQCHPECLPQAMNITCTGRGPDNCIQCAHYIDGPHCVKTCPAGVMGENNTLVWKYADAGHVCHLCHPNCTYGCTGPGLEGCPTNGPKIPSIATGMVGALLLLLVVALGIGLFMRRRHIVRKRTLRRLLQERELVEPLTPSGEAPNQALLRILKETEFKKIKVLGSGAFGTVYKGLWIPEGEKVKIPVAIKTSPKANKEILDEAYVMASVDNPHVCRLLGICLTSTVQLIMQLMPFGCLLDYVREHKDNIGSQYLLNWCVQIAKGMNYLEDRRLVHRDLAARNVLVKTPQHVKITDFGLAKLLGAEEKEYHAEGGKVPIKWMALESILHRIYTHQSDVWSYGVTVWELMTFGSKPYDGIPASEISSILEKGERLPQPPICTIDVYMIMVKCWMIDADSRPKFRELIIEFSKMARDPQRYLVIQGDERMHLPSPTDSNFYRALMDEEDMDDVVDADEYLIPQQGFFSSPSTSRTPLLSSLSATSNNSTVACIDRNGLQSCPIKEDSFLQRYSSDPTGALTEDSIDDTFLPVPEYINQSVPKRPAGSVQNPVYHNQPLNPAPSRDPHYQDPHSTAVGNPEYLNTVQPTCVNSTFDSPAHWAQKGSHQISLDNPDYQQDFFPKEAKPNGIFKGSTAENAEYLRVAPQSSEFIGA
Procedure: as §1
Cells were collected into a microcentrifuge tube and sonicated for 30 seconds on ice. Cellular protein levels were assessed using a bicinchoninic acid (BCA) protein assay kit according to the manufacturer’s instructions (Thermo scientific). […] Samples were transferred to polyvinylidene difluoride (PVDF) membrane using Trans-Blot Turbo system BIO-RAD (Hercules, California, USA). […] The membranes were then incubated overnight with primary antibody prepared in 1% milk or 1% BSA in TBST. […] Membranes were washed a further three times for 10 minutes with TBST. Blots were visualised using chemoluminescence (ECL, GE Healthcare, Little Chalfont, UK) and developed on Amersham Hyperfilm ECL (GE Healthcare). β-Actin was used as a loading control.

## CCOc1cc2ncc(C#N)c(Nc3ccc(F)c(Cl)c3)c2cc1NC(=O)/C=C/CNCc1cn(CCF)nn1 [FED6, (2E)-N-{4-[(3-chloro-4-fluorophenyl)amino]-3-cyano-7-ethoxyquinolin-6-yl}-4-({[1-(2-fluoroethyl)-1H-1,2,3-triazol-4-yl]methyl}amino)-but-2-enamide]
[1]
  IC50: > 1000 nM
3T3 cells; pre-treatment with 0.3 μM zosuquidar
  GI50: 7.8 ± 0.7 µM
3T3 cells; without zosuquidar
  GI50: 10.7 ± 1 µM
ABCB1 (MDR1); with zosuquidar 0.3 μM (1 h pre-treatment), pre-treatment with 0.3 μM zosuquidar
  GI50 at 72 h: 13.6 ± 0.6 µM
ABCB1 (MDR1); without zosuquidar
  GI50 at 72 h: > 100 µM
3T3-MDR1 cells
  fold increase in GI50 in the ABCB1 overexpressing cell line: > 10 fold
EGFR L858R (H3255 cells)
  IC50: 8 nM
[2]
  IC50: 22 nM
[3]
  IC50: 40 nM
[4]; 3 h incubation, EGF stimulated
  IC50: 45 nM
[4]; PC9ER versus isogenic PC9
  fold higher IC50 (p-EGFR) in PC9ER compared to PC9: 2 fold
